Results: patent US20060067978A1, “Process for preparing poly(vinyl alcohol) drug delivery devices” (Bausch & Lomb Incorporated, priority 2004, published 2006)

Experiment: thermal decomposition of the medicament at curing temperature
Type: physicochemical
Details: heat stability considered for curing poly(vinyl alcohol) in the presence of the medicament

temperature above which the medicament begins to decompose: about 165 °C
SMILES: CC1(C)O[C@@H]2C[C@H]3[C@@H]4C[C@H](F)C5=CC(=O)C=C[C@]5(C)[C@@]4(F)[C@@H](O)C[C@]3(C)[C@]2(C(=O)CO)O1 [flucinolone acetonide]
